The values that follow come from ChEMBL document CHEMBL6092161, “First fragment-based screening identifies new chemotypes inhibiting ERAP1-metalloprotease” (Eur J Med Chem, 2024).

The subject of assay [1] is Insulin-regulated aminopeptidase (Homo sapiens). In words: Inhibition of recombinant human IRAP at 300 uM using L-AMC as substrate preincubated for 30 mins followed by substrate addition and measured after 1 hr by fluorescence based assay. The following applies: time 90.0 min.
Assay [2] has as its target T1, Endoplasmic reticulum aminopeptidase 1 (Homo sapiens, UniProt Q9NZ08). In words: Inhibition of recombinant human ERAP1 using L-AMC as substrate preincubated for 30 mins followed by substrate addition and measured after 1 hr by fluorescence based assay.
Assay [3] addresses Endoplasmic reticulum aminopeptidase 2 (Homo sapiens) (UniProt Q6P179). The assay can be described thus: Inhibition of recombinant human ERAP2 at 300 uM using R-AMC as substrate preincubated for 30 mins followed by substrate addition and measured after 1 hr by fluorescence based assay relative to control. To be noted: time 90.0 min.
Assay [4] concerns the target T1, Endoplasmic reticulum aminopeptidase 1. The assay can be described thus: Inhibition of human ERAP1 using L-SIINFEKL as substrate by LC-MS/MS method.
The target is the same in assay [5]. In words: Inhibition of recombinant human ERAP1 using L-AMC as substrate at 4 uM preincubated for 30 mins followed by substrate addition and measured after 1 hr by fluorescence based assay relative to control. The following applies: time 90.0 min.
Assay [6] deals with Endoplasmic reticulum aminopeptidase 2 (Homo sapiens) (UniProt Q6P179). In words: Inhibition of recombinant human ERAP2 at 90 uM using R-AMC as substrate preincubated for 30 mins followed by substrate addition and measured after 1 hr by fluorescence based assay relative to control. To be noted: time 90.0 min.
For assay [7], the target named is T1, Endoplasmic reticulum aminopeptidase 1. The assay can be described thus: Inhibition of recombinant human ERAP1 using L-AMC as substrate at 90 uM preincubated for 30 mins followed by substrate addition and measured after 1 hr by fluorescence based assay relative to control. To be noted: time 90.0 min.

T1 sequence (Q9NZ08 whole entry): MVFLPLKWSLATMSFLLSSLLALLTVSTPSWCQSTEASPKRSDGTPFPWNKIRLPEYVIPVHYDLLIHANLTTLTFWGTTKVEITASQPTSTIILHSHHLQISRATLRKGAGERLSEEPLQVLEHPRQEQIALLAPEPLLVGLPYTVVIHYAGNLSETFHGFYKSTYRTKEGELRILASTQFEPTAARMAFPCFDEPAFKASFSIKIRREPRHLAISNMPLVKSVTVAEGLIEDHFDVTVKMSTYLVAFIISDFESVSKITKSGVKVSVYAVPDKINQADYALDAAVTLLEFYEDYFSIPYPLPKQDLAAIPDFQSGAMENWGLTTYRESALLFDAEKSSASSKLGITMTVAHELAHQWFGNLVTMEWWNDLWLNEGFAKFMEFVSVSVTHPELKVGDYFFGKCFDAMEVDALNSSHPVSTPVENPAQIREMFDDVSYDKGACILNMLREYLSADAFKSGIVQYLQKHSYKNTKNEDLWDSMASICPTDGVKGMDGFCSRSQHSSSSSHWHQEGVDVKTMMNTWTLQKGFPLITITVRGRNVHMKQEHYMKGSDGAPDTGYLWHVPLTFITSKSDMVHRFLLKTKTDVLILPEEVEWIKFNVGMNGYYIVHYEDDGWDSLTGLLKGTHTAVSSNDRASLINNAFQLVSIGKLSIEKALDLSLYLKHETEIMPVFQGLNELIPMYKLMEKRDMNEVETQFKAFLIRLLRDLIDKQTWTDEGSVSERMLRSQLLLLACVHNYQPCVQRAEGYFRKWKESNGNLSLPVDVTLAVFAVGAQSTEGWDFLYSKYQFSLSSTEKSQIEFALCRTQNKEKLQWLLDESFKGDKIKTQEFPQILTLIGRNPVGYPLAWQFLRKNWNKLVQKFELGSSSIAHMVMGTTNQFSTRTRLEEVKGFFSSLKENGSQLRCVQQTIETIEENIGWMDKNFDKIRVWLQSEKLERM
Endoplasmic reticulum aminopeptidase 2 (Homo sapiens), sequence (Q6P179 whole entry): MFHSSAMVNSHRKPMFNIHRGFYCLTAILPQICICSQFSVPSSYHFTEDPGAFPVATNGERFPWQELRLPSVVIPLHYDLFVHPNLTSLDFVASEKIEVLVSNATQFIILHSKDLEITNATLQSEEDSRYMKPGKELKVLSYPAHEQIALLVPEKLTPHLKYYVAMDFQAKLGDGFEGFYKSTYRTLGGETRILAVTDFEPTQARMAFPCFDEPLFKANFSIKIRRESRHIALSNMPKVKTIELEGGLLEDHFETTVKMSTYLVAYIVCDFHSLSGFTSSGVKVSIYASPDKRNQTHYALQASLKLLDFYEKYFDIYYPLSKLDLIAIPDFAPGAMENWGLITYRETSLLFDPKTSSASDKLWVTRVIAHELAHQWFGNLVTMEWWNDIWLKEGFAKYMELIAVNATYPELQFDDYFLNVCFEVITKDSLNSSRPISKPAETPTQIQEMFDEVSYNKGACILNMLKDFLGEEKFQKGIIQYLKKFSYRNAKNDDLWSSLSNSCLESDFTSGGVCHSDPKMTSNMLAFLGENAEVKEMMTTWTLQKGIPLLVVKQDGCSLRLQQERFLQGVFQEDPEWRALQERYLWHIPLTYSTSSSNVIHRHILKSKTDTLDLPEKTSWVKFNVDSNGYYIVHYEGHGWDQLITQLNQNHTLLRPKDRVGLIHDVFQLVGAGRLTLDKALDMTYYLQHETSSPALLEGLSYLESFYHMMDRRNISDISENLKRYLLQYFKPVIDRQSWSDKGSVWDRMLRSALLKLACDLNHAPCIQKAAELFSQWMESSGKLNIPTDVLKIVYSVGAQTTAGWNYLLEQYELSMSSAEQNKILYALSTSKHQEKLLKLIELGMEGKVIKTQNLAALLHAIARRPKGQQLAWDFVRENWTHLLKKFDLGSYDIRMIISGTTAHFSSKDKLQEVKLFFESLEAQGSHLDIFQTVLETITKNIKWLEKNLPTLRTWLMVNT

On to `O=C1NC(=O)/C(=C/c2ccc(C(=O)O)cc2)S1`, for which the inhibition in assay [1] stood at 38%. Still for that read-out and setting: next, `O=C(O)Cc1cccc(S(=O)(=O)N2CCCC2)c1`: less than 30%. With `O=C(O)Cc1ccc(S(=O)(=O)N2CCCC2)s1`, the 50% inhibitory concentration (IC50) in assay [2] is 27.2 µM. In assay [1], the inhibition came out at 62%. In the case of `O=C(O)Cc1ccc(S(=O)(=O)N2CCCCC2)s1`, the values for the inhibition in assay [1] and in assay [3] were 58% and 38%, respectively.

For the compound `Nc1[nH]cnc2nc(S)nc1-2`, the IC50 was found to be 2.2 µM in assay [2] and 10.3 µM in assay [4]. Regarding `O=c1[nH]c(=S)[nH]c(O)c1-c1ccccc1`, in assay [2], the IC50 was 82.6 µM.

On to `O=C(O)c1ccc(CC2SC(=S)NC2=O)cc1` (centres undefined), for which the inhibition in assay [1] and in assay [3] was less than 30% in each case. For `O=C1NC(=O)C(Cc2ccc(C(=O)O)cc2)S1` (centres undefined), in assay [1], the inhibition turned out to be 30%. Take `COc1ccc(Cc2c(O)nc(S)nc2O)cc1`: the IC50 in assay [2] came out at 58.3 µM. For `O=C1NC(=O)/C(=C/c2ccc(C(=O)O)cc2)N1`, in assay [1], the inhibition stood at 30%. With `CC(C)C[C@H](NC(=O)[C@@H](O)[C@H](N)Cc1ccccc1)C(=O)O`, the inhibition in assay [5] amounted to 100%; in assay [6], 50%; in assay [7], 100%. As for `COC(=O)c1ccc(CC2SC(=S)NC2=O)cc1` (centres undefined), the inhibition in assay [1] is less than 30%. Turning to `CN1C(=O)/C(=C/c2ccc(C(=O)O)cc2)SC1=S`, the inhibition in assay [1] was found to be 51%; in assay [3], 43%. For `COC(=O)c1ccc(/C=C2\SC(=S)NC2=O)cc1`, the inhibition in assay [1] was less than 30%. With `O=C1NC(=S)S/C1=C\c1ccc(C(=O)O)cc1`, the IC50 in assay [2] came to 19.5 µM; in assay [4], 28.6 µM. As to `CN1C(=O)S/C(=C\c2ccc(C(=O)O)cc2)C1=O`, the inhibition in assay [1] was 47%.

The inhibition is the relative decrease from the control value, in per cent. The term IC50 denotes the concentration that inhibits the measured activity by half.
